Results taken from the NIST ThermoML archive (doi:10.1016/j.jct.2010.04.003).

Assay: xn = mol fraction of the nth substance listed
Settings: 101 kPa, Liquid, Buoyancy - hydrostatic balance with magnetic suspension - one sinker

CN(C)P(=O)(N(C)C)N(C)C [tris(dimethylamino)phosphine oxide] + O
mass density [kg/m3]
Settings | 288.15 K | 293.15 K | 298.15 K | 303.15 K | 308.15 K
x1 = 0.0023 | 1001.1 | 1000.05 | 998.77 | 997.25 | 995.51
x1 = 0.00503 | 1003.51 | 1002.29 | 1000.85 | 999.27 | 997.34
x1 = 0.0101 | 1007.82 | 1006.2 | 1004.52 | 1002.76 | 1000.79
x1 = 0.0297 | 1024.31 | 1021.59 | 1018.84 | 1016.02 | 1013.39
x1 = 0.05 | 1036.43 | 1033.08 | 1029.72 | 1026.56 | 1023.13
x1 = 0.07 | 1043.92 | 1040.44 | 1036.96 | 1033.47 | 1029.7
x1 = 0.1 | 1050.24 | 1046.86 | 1042.73 | 1039 | 1034.91
x1 = 0.1496 | 1054.84 | 1050.62 | 1046.2 | 1041.95 | 1037.57
x1 = 0.1999 | 1054.7 | 1050.33 | 1045.83 | 1041.49 | 1037.05
x1 = 0.3008 | 1049.56 | 1045 | 1040.47 | 1036.04 | 1031.66
x1 = 0.3999 | 1044.61 | 1040.34 | 1035.76 | 1031.36 | 1026.94
x1 = 0.5002 | 1040.86 | 1036.54 | 1032.12 | 1027.81 | 1023.35
x1 = 0.6 | 1038.03 | 1033.74 | 1029.39 | 1025.15 | 1020.66
x1 = 0.6997 | 1035.45 | 1031.15 | 1026.79 | 1022.51 | 1018
x1 = 0.8004 | 1033.06 | 1028.72 | 1024.37 | 1020.03 | 1015.57
x1 = 0.8505 | 1031.95 | 1027.66 | 1023.31 | 1019.05 | 1014.64
x1 = 0.91 | 1030.54 | 1026.29 | 1021.95 | 1017.74 | 1013.41
x1 = 0.9499 | 1029.63 | 1025.4 | 1021.07 | 1016.88 | 1012.59
x1 = 0.9703 | 1029.16 | 1024.92 | 1020.61 | 1016.44 | 1012.14
x1 = 0.9849 | 1028.81 | 1024.6 | 1020.3 | 1016.12 | 1011.86
x1 = 0.9937 | 1028.61 | 1024.4 | 1020.1 | 1015.93 | 1011.68
x1 = 0.9967 | 1028.54 | 1024.33 | 1020.03 | 1015.86 | 1011.61
x1 = 1 | 1028.47 | 1024.26 | 1019.96 | 1015.79 | 1011.54
